{"source": "the supplement of paper PMC10307832"}
{"compound": "NCC(=O)Nc1ccc(-n2nc(C(F)(F)F)cc2-c2ccc3c(ccc4ccccc43)c2)cc1 + Cc1cc(Nc2cc(N3CCN(C)CC3)nc(Sc3ccc(NC(=O)C4CC4)cc3)n2)n[nH]1 [Tozasertib] (partner 0.1 µM)", "experiment": "relative viability (nuclei count vs DMSO), 5 days (fraction); higher = more cells survive", "settings": "first compound 0.6325 µM", "summary_of_the_method": "(§1)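 Dosing by pin tool came one day after lung cancer cell lines were seeded in 1536-well plates, using either one drug or a fixed anchor-drug dose plus five library-drug doses (not always all listed) in √10 steps. After 5 days, nuclei were counted on 4× images. Relative viability is treated-well nuclei count divided by vehicle-well nuclei count, and values are medians of duplicate plates.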"}
{"cell line": "ChaGo-K-1", "relative viability": 0.251}
{"cell line": "NCI-H2170", "relative viability": 0.799}
{"cell line": "NCI-H2405", "relative viability": 0.733}
{"cell line": "HOP-62", "relative viability": 0.409}
{"cell line": "LU99A", "relative viability": 0.271}
{"cell line": "BEN", "relative viability": 0.464}
{"cell line": "HARA", "relative viability": 0.0964}
{"cell line": "SW 900", "relative viability": 0.533}
{"cell line": "NCI-H322M", "relative viability": 0.491}
{"cell line": "LCLC-97TM1", "relative viability": 0.206}
{"cell line": "A-427", "relative viability": 0.208}
{"cell line": "NCI-H441", "relative viability": 0.603}
{"cell line": "NCI-H1734", "relative viability": 0.286}
{"cell line": "NCI-H460", "relative viability": 0.47}
{"cell line": "NCI-H2347", "relative viability": 0.618}
{"cell line": "NCI-H1395", "relative viability": 0.794}
{"cell line": "201T", "relative viability": 0.924}
{"cell line": "NCI-H1915", "relative viability": 0.418}
{"cell line": "HCC-827", "relative viability": 0.427}
{"cell line": "LXF-289", "relative viability": 0.214}
{"cell line": "NCI-H23", "relative viability": 0.358}
{"cell line": "NCI-H647", "relative viability": 0.233}
{"cell line": "CAL-12T", "relative viability": 0.334}
{"cell line": "NCI-H1651", "relative viability": 0.588}
{"cell line": "EPLC-272H", "relative viability": 0.313}
{"cell line": "NCI-H1355", "relative viability": 0.57}
{"cell line": "NCI-H3122", "relative viability": 0.366}
{"cell line": "NCI-H1437", "relative viability": 0.402}
{"cell line": "NCI-H1755", "relative viability": 0.591}
{"cell line": "HCC-15", "relative viability": 0.489}
{"compound": "NCC(=O)Nc1ccc(-n2nc(C(F)(F)F)cc2-c2ccc3c(ccc4ccccc43)c2)cc1 + Cc1cc(Nc2cc(N3CCN(C)CC3)nc(Sc3ccc(NC(=O)C4CC4)cc3)n2)n[nH]1 [Tozasertib] (partner 0.1 µM)", "experiment": "relative viability (nuclei count vs DMSO), 5 days (fraction); higher = more cells survive", "settings": "first compound 2 µM", "summary_of_the_method": "as §1"}
{"cell line": "ChaGo-K-1", "relative viability": 0.231}
{"cell line": "NCI-H2170", "relative viability": 0.771}
{"cell line": "NCI-H2405", "relative viability": 0.868}
{"cell line": "HOP-62", "relative viability": 0.365}
{"cell line": "LU99A", "relative viability": 0.265}
{"cell line": "BEN", "relative viability": 0.572}
{"cell line": "HARA", "relative viability": 0.0949}
{"cell line": "SW 900", "relative viability": 0.511}
{"cell line": "NCI-H322M", "relative viability": 0.517}
{"cell line": "LCLC-97TM1", "relative viability": 0.206}
{"cell line": "A-427", "relative viability": 0.205}
{"cell line": "NCI-H441", "relative viability": 0.697}
{"cell line": "NCI-H1734", "relative viability": 0.254}
{"cell line": "NCI-H460", "relative viability": 0.394}
{"cell line": "NCI-H2347", "relative viability": 0.73}
{"cell line": "NCI-H1395", "relative viability": 0.706}
{"cell line": "201T", "relative viability": 0.928}
{"cell line": "NCI-H1915", "relative viability": 0.407}
{"cell line": "HCC-827", "relative viability": 0.446}
{"cell line": "LXF-289", "relative viability": 0.197}
{"cell line": "NCI-H23", "relative viability": 0.369}
{"cell line": "NCI-H647", "relative viability": 0.254}
{"cell line": "CAL-12T", "relative viability": 0.277}
{"cell line": "NCI-H1651", "relative viability": 0.676}
{"cell line": "EPLC-272H", "relative viability": 0.234}
{"cell line": "NCI-H1355", "relative viability": 0.57}
{"cell line": "NCI-H3122", "relative viability": 0.236}
{"cell line": "NCI-H1437", "relative viability": 0.387}
{"cell line": "NCI-H1755", "relative viability": 0.555}
{"cell line": "HCC-15", "relative viability": 0.347}
{"compound": "C1CSC2=C(C(=O)N1)SC3=C2C=C(C=C3)O [kb NB 142-70] + COc1cc2c(Oc3ccc(NC(=O)C4(C(=O)Nc5ccc(F)cc5)CC4)cc3F)ccnc2cc1OCCCN1CCOCC1 [Foretinib] (partner 0.25 µM)", "experiment": "relative viability (nuclei count vs DMSO), 5 days (fraction); higher = more cells survive", "settings": "first compound 0.1 µM", "summary_of_the_method": "as §1"}
{"cell line": "ChaGo-K-1", "relative viability": 0.89}
{"cell line": "NCI-H2170", "relative viability": 0.996}
{"cell line": "NCI-H2405", "relative viability": 1.05}
{"cell line": "HOP-62", "relative viability": 1.19}
{"cell line": "LU99A", "relative viability": 0.781}
{"cell line": "BEN", "relative viability": 0.535}
{"cell line": "HARA", "relative viability": 0.771}
{"cell line": "SW 900", "relative viability": 1.06}
{"cell line": "NCI-H322M", "relative viability": 0.891}
{"cell line": "LCLC-97TM1", "relative viability": 1.01}
{"cell line": "A-427", "relative viability": 1.14}
{"cell line": "NCI-H441", "relative viability": 0.939}
{"cell line": "NCI-H1734", "relative viability": 0.873}
{"cell line": "NCI-H460", "relative viability": 0.951}
{"cell line": "NCI-H2347", "relative viability": 0.744}
{"cell line": "NCI-H1395", "relative viability": 0.942}
{"cell line": "201T", "relative viability": 1.07}
{"cell line": "NCI-H1915", "relative viability": 1.1}
{"cell line": "HCC-827", "relative viability": 1.08}
{"cell line": "LXF-289", "relative viability": 0.973}
{"cell line": "NCI-H23", "relative viability": 1.06}
{"cell line": "NCI-H647", "relative viability": 1.28}
{"cell line": "CAL-12T", "relative viability": 1.03}
{"cell line": "NCI-H1651", "relative viability": 0.802}
{"cell line": "EPLC-272H", "relative viability": 0.696}
{"cell line": "NCI-H1355", "relative viability": 0.946}
{"cell line": "NCI-H3122", "relative viability": 0.956}
{"cell line": "NCI-H1437", "relative viability": 1.28}
{"cell line": "NCI-H1755", "relative viability": 0.928}
{"cell line": "HCC-15", "relative viability": 1.01}
{"compound": "C1CSC2=C(C(=O)N1)SC3=C2C=C(C=C3)O [kb NB 142-70] + COc1cc2c(Oc3ccc(NC(=O)C4(C(=O)Nc5ccc(F)cc5)CC4)cc3F)ccnc2cc1OCCCN1CCOCC1 [Foretinib] (partner 0.25 µM)", "experiment": "relative viability (nuclei count vs DMSO), 5 days (fraction); higher = more cells survive", "settings": "first compound 1 µM", "summary_of_the_method": "as §1"}
{"cell line": "ChaGo-K-1", "relative viability": 0.967}
{"cell line": "NCI-H2170", "relative viability": 1.07}
{"cell line": "NCI-H2405", "relative viability": 1.05}
{"cell line": "HOP-62", "relative viability": 1.18}
{"cell line": "LU99A", "relative viability": 0.765}
{"cell line": "BEN", "relative viability": 0.648}
{"cell line": "HARA", "relative viability": 0.521}
{"cell line": "SW 900", "relative viability": 1.2}
{"cell line": "NCI-H322M", "relative viability": 1.04}
{"cell line": "LCLC-97TM1", "relative viability": 0.883}
{"cell line": "A-427", "relative viability": 1.25}
{"cell line": "NCI-H441", "relative viability": 1.15}
{"cell line": "NCI-H1734", "relative viability": 0.738}
{"cell line": "NCI-H460", "relative viability": 1.07}
{"cell line": "NCI-H2347", "relative viability": 1.21}
{"cell line": "NCI-H1395", "relative viability": 1.04}
{"cell line": "201T", "relative viability": 1.17}
{"cell line": "NCI-H1915", "relative viability": 1.12}
{"cell line": "HCC-827", "relative viability": 0.981}
{"cell line": "LXF-289", "relative viability": 1.01}
{"cell line": "NCI-H23", "relative viability": 0.819}
{"cell line": "NCI-H647", "relative viability": 1.28}
{"cell line": "CAL-12T", "relative viability": 1.18}
{"cell line": "NCI-H1651", "relative viability": 0.683}
{"cell line": "EPLC-272H", "relative viability": 0.725}
{"cell line": "NCI-H1355", "relative viability": 1.06}
{"cell line": "NCI-H3122", "relative viability": 0.926}
{"cell line": "NCI-H1437", "relative viability": 1.3}
{"cell line": "NCI-H1755", "relative viability": 0.867}
{"cell line": "HCC-15", "relative viability": 1.13}
{"compound": "C1CSC2=C(C(=O)N1)SC3=C2C=C(C=C3)O [kb NB 142-70] + COc1cc2c(Oc3ccc(NC(=O)C4(C(=O)Nc5ccc(F)cc5)CC4)cc3F)ccnc2cc1OCCCN1CCOCC1 [Foretinib] (partner 0.25 µM)", "experiment": "relative viability (nuclei count vs DMSO), 5 days (fraction); higher = more cells survive", "settings": "first compound 3.162 µM", "summary_of_the_method": "as §1"}
{"cell line": "ChaGo-K-1", "relative viability": 0.862}
{"cell line": "NCI-H2170", "relative viability": 0.953}
{"cell line": "NCI-H2405", "relative viability": 0.776}
{"cell line": "HOP-62", "relative viability": 1.02}
{"cell line": "LU99A", "relative viability": 0.569}
{"cell line": "BEN", "relative viability": 0.486}
{"cell line": "HARA", "relative viability": 0.867}
{"cell line": "SW 900", "relative viability": 0.436}
{"cell line": "NCI-H322M", "relative viability": 1.04}
{"cell line": "LCLC-97TM1", "relative viability": 0.606}
{"cell line": "A-427", "relative viability": 0.929}
{"cell line": "NCI-H441", "relative viability": 0.459}
{"cell line": "NCI-H1734", "relative viability": 0.456}
{"cell line": "NCI-H460", "relative viability": 0.985}
{"cell line": "NCI-H2347", "relative viability": 0.72}
{"cell line": "NCI-H1395", "relative viability": 0.946}
{"cell line": "201T", "relative viability": 1.08}
{"cell line": "NCI-H1915", "relative viability": 0.82}
{"cell line": "HCC-827", "relative viability": 0.852}
{"cell line": "LXF-289", "relative viability": 0.813}
{"cell line": "NCI-H23", "relative viability": 0.642}
{"cell line": "NCI-H647", "relative viability": 1.24}
{"cell line": "CAL-12T", "relative viability": 0.837}
{"cell line": "NCI-H1651", "relative viability": 0.618}
{"cell line": "EPLC-272H", "relative viability": 0.255}
{"cell line": "NCI-H1355", "relative viability": 0.975}
{"cell line": "NCI-H3122", "relative viability": 0.942}
{"cell line": "NCI-H1437", "relative viability": 1.22}
{"cell line": "NCI-H1755", "relative viability": 0.944}
{"cell line": "HCC-15", "relative viability": 0.946}
